Laboratory results published in a melting point compilation (Tetko et al.; mined from patent text by program, amines drawn as free bases though some values may be those of a salt).

Work on `Cc1ccc(C(=O)C2=C(O)C(=O)N(c3ccc(C)cn3)C2c2ccc(C(C)C)cc2)cc1` (centres undefined) yielded a melting point of 259 to 261 °C.
Work on `CN(C)Cc1nc(-c2ncn3c2C2CCCN2C(=O)c2c(Cl)cccc2-3)no1` (centres undefined) yielded a melting point of 261 °C.
Work on `COc1ccc(C(=O)CBr)c(F)c1` yielded a melting point of 67 to 69 °C.
`Cc1cc(OCC(F)(F)F)c(NC(=O)CBr)c(OCC(F)(F)F)n1` gave a melting point of 153 to 154 °C.
In the case of `CC(C)(C)OC(=O)CCc1cccc(-c2nc(=O)c3ccc(Cl)cc3s2)n1`, the melting point is reported as 168 °C.
In the case of `O=C1N[C@H](Cc2cccc(OCC(F)(F)C(F)F)c2)[C@H](c2ccc(F)cc2)O1` (racemic), the melting point is reported as 113 to 114 °C.
`C=CCc1ccc(O)c(-c2cc(CC=C)ccc2O)c1` showed a melting point of 101 to 103 °C.
In the case of `CS(=O)(=O)c1ccc(C(=O)O)c([N+](=O)[O-])c1`, the melting point is reported as 204 to 206 °C.
Molecule `CC(C)n1nc(-c2c(-c3ccccc3)nn3ccc(OC4CCOCC4)cc23)ccc1=O` has a melting point of 210 to 211 °C.
In the case of `OC(c1nccs1)(c1nccs1)C(F)(F)F`, the melting point is reported as 113 to 115 °C.
`O=C(CCS)NC1CCCCC1` gave a melting point of 73.5 to 75.5 °C.
With `O=c1cccccc1N1CCN(c2cccc(C(F)(F)F)c2)CC1` the melting point was 112 to 114 °C.
With `O=C(O)CC1CCC2CC(=O)NC12` (centres undefined) the melting point was 186 to 189 °C.
`O=[N+]([O-])c1ccccc1C1=NCC(=S)Nc2sc(Cl)cc21` gave a melting point of 213 to 215 °C.
Work on `COCCOc1cccc2c1C(=O)c1ccccc1C2=O` yielded a melting point of 146 to 147 °C.
`COc1cc(C(Cl)(Cl)Cl)cc(OC)n1` showed a melting point of 71 to 73 °C.
Molecule `CCc1cc(Cl)c(C)c(Oc2c(C)cc(C)cc2C)n1` has a melting point of 42 to 44 °C.
With `CCCCCCCCCCCCCCCCC(C)c1cccc2c1OC(=O)C2c1ccccc1` (centres undefined) the melting point was 60 to 62 °C.
With `CCC(CC)(CCl)c1cc(Cl)nnc1Cl` the melting point was 45 to 47 °C.
`Cc1cn(-c2nc(C)cc3[nH]c(=O)ccc23)cn1` showed a melting point of 307 to 308 °C.
In the case of `Nc1nc(OS(=O)(=O)c2ccccc2)ncc1F`, the melting point is reported as 139 to 141 °C.
With `O=C(Nc1ccc(F)cc1)c1cccc([N+](=O)[O-])c1` the melting point was 167 to 168 °C.
`Cc1ccc(SC(C#N)c2cccc(C(=O)c3ccccc3)c2)cc1` (centres undefined) showed a melting point of 79 to 79.5 °C.
With `CC(=O)NC(=N)NCC1CC2c3cccc4[nH]cc(c34)CC2N(C)C1` (centres undefined) the melting point was 218 to 220 °C.
Work on `CCCOc1cc2ccccc2c2c(=O)c(-c3ccoc3)cn(C)c12` yielded a melting point of 165 to 167 °C.
With `CCOC(=O)c1ccc(-c2cc3c(NCc4ccc(OC)nc4)ncnc3[nH]2)cc1` the melting point was 305 °C.
Work on `COC(=O)CSC1c2ccccc2C=Cc2ccccc21` yielded a melting point of 74 to 76 °C.
In the case of `CC[C@H](Cn1cnnn1)n1cnc2cc3c(=O)n([C@H](CC)Cn4cnnn4)nnc3cc2c1=O`, the melting point is reported as 80 to 81 °C.
For `CC(C)c1cccc(C(C)C)c1NC(=O)C(N)Cc1ccc(OCc2ccccc2)cc1` (centres undefined), the melting point was 117 to 122 °C.
With `CS(=O)(=O)On1c(=O)c2cc3c(=O)n(OS(C)(=O)=O)c(=O)c3cc2c1=O` the melting point was over 300 °C.
Work on `COC(=O)c1ccc(OCCCc2ccccc2)cc1` yielded a melting point of 61 to 61.5 °C.
`O=C(O)c1cc(NCc2c(F)c(F)c(C(F)(F)F)c(F)c2F)ccc1Br` gave a melting point of 70 °C.
In the case of `CCOC(=O)C(C)(C)Oc1ccc(-c2ccc(CCNC(C)=O)cc2)cc1`, the melting point is reported as under 20 °C.
In the case of `CC(C)CN(CC(C)C)c1ccc(C(=O)c2ccccc2)cc1N`, the melting point is reported as 59 to 60 °C.
With `COc1ccc(Br)cc1C1C2CC3CC(C2)CC1C3` (centres undefined) the melting point was 140 to 141 °C.
`Cc1ccc(C=CC(=O)c2ccc3c(c2)C(C)(C)CCC3(C)C)cc1` gave a melting point of 153 to 154 °C.
In the case of `COc1ccc(Cl)cc1C(=O)c1cc(Cl)ccc1OC`, the melting point is reported as 108 °C.
`COCc1c[nH]c(-c2ccc(OCc3ccccc3)cc2)n1` gave a melting point of 146 to 148 °C.
`CC(Oc1ccc(-c2ccc(CC(=O)NC3CC3)cc2)cc1)C(O)CCc1cccnc1` (centres undefined) gave a melting point of 117 to 118 °C.
`O=C(c1ccccc1)C(OCc1ccc(Cl)cc1Cl)n1ccnc1` (centres undefined) gave a melting point of 109 to 111 °C.
`CC(=O)[C@H]1CC=C(C)C(=O)C1` showed a melting point of 35 °C.
With `CC(C)(C)c1cc(C(=O)NCCc2ccc(N)cc2)cc(C(C)(C)C)c1O` the melting point was 193 to 195 °C.
`CCCCc1ncc(C=C2C(=O)N(C)c3ccccc32)n1Cc1ccc(C(=O)O)cc1` showed a melting point of 185 to 188 °C.
For `COc1ccc(C2(C#Cc3ccnc(N)n3)CCC(=O)CC2)cc1OC1CCCC1`, the melting point was 68 to 70 °C.
For `CC#CCOc1cc(N(C)c2ccccc2)ncn1`, the melting point was 57.6 °C.
Molecule `O=C1Nc2cc(NC(=O)c3c[nH]cc(-c4ccc(F)cc4)c3=O)c(F)cc2/C1=C/c1ccc[nH]1` has a melting point of over 300 °C.
In the case of `COc1cc2c(I)cn(C)c2cc1OC`, the melting point is reported as 80 to 90 °C.
Work on `Cc1nc(N2CCN(Cc3ccc(OC(F)F)cc3)C2=O)sc1C(=O)NCc1cccnc1` yielded a melting point of 166 to 167 °C.
For `O=Cc1cc(Br)cnc1N1CCC(CO)C1` (centres undefined), the melting point was 84 to 85.5 °C.
`COc1ccc(C(O)Cc2c(Cl)cccc2Cl)cc1OC1CCCC1` (centres undefined) gave a melting point of 87 to 89 °C.
`CC(C)CCNS(=O)(=O)c1cc(C(=O)NC2CCc3ccccc32)ccc1Oc1ccccc1` (centres undefined) showed a melting point of 73 °C.
Work on `O=C(NC(Cc1ccccc1)C(=O)O)c1cc2cc(F)ccc2[nH]1` (centres undefined) yielded a melting point of 125 to 127 °C.
With `CCOC=NN=C(c1ccc(Cl)cc1)c1ccc(OS(C)(=O)=O)cc1` the melting point was 104 to 107 °C.
Molecule `CCOC(=O)C(CO)c1ccc(OCC)cc1` (centres undefined) has a melting point of 35 to 36 °C.
In the case of `CS(=O)c1c(C2(C)NCCS2)nn(-c2c(Cl)cc(C(F)(F)F)cc2Cl)c1N` (centres undefined), the melting point is reported as 85 °C.
In the case of `CCCCCCCCCCCCCCCCOCC(COP(=O)(O)O)OCCCCCCCCCCCCCCCC` (centres undefined), the melting point is reported as 157 to 159 °C.
Molecule `CCc1nnc2c(O)nc3cc(Cl)ccc3n12` has a melting point of over 300 °C.
Molecule `c1ccc(-c2nc(COc3cccc(Cc4nnn[nH]4)c3)cs2)cc1` has a melting point of 160 to 161 °C.
`COc1cc(CCC(=O)CC(=O)c2ccc(-c3ccccc3)cc2)ccc1O` showed a melting point of 118 to 119 °C.
Molecule `CN1Cc2c(C#CC(C)(C)O)ncn2-c2cccc(Br)c2C1=O` has a melting point of 207 to 208 °C.
Work on `Cc1cn(-c2cc3nc(NN)c(=O)n(OCc4ccccc4)c3cc2C(F)(F)F)c(-c2ccccc2)n1` yielded a melting point of 127 to 130 °C.
`O=C1CCCCC(c2ccccc2)N1` (centres undefined) gave a melting point of 135 to 137 °C.
`CN1CCC(C2c3sccc3CCn3ncnc32)CC1` (centres undefined) gave a melting point of 123 °C.
`N#Cc1c[nH]c(C(N)=O)c1` showed a melting point of 253 to 256 °C.
For `Cc1cncn1Cc1ccc2ccc3c(c2c1)C(C)(C)C(=O)O3`, the melting point was 88 to 91 °C.
With `COc1cc(OC)nc(C(=O)c2nscc2C(=O)N(C)c2ccccc2)n1` the melting point was 140 to 142 °C.
In the case of `Fc1cc(F)c2c(c1)CC(n1c(-c3nnn[nH]3)c[nH]c1=S)CC2` (centres undefined), the melting point is reported as 214 to 215 °C.
In the case of `Cc1csc2nc(=O)n(C)c(-c3ccccc3F)c12`, the melting point is reported as 176 to 178 °C.
In the case of `O=C1Cc2cccc(S(=O)(=O)c3ccccc3)c2N1`, the melting point is reported as 217 to 220 °C.
For `CN1CCc2ccc(C(=O)CCC(=O)N3CCC(c4ccc(Cl)cc4)CC3)cc2CC1`, the melting point was 143 to 145 °C.
Work on `Cc1c(N)c(C)c2c(-c3ccc(C4CCCCC4)cc3)coc2c1C` yielded a melting point of 139 to 140 °C.
In the case of `COC(=O)c1ccc2c(c1)CCC(CCN1CCC(c3ccccc3)CC1)C2=O` (centres undefined), the melting point is reported as 110 to 112 °C.
Work on `CN1C(=O)CCC2c3ccc(Cl)cc3CCC21` (centres undefined) yielded a melting point of 82 °C.
Molecule `O=C(O)c1snc(-c2cc(C(F)(F)F)cc(C(F)(F)F)c2)c1C(=O)O` has a melting point of 193 to 194 °C.
`NC(=O)COC(=O)c1ccccc1` gave a melting point of 118 °C.
`CC(=O)ON(C(=O)NN(C)C)C1c2ccccc2Oc2ccccc21` gave a melting point of 120 to 121 °C.
With `COc1ccn2cc(-c3ccc(C)c(C)c3)nc2c1` the melting point was 175 °C.
`O=C(OCc1ccccc1)N1CCC(O)(CNc2ccc(Cl)c(Cl)c2)CC1` gave a melting point of 128 to 130 °C.
In the case of `NS(=O)(=O)c1cccc(-c2cn(-c3cc(C(F)(F)F)cc(-c4ccc(C(F)(F)F)cc4)n3)cn2)c1`, the melting point is reported as over 266 °C.
For `COC(=O)CCc1cc2c(s1)NC(=O)C(C)N=C2c1ccccc1Cl` (centres undefined), the melting point was 196 to 197 °C.
Molecule `COc1cc(OC)c(C2CCN(C)C2CO)c(OC)c1` (centres undefined) has a melting point of 82 to 85 °C.
Work on `CCC(OCC(F)(F)F)c1ccc(Cl)c2nc3n(c12)CCCN3c1ccc(OC)nc1C` (centres undefined) yielded a melting point of 124 to 126 °C.
`CCOC(=O)CCc1c[nH]c(-c2cccs2)c1` showed a melting point of 39 to 40 °C.
`CN1CCC(N(CCN2CCCC2)S(=O)(=O)c2ccc(Nc3nccc(Nc4ccc(F)cc4)n3)cc2)CC1` showed a melting point of 250 °C.
With `CCN1CCCNC1=C[N+](=O)[O-]` the melting point was 126 to 127 °C.
Work on `CN(CCOc1ccccc1)[C@H]1CC[C@H](c2ccc(OCc3ccccc3)cc2)CC1` yielded a melting point of 67 to 69 °C.
In the case of `CCCCc1nn(-c2cc([N+](=O)[O-])ccc2Cl)c(C(=O)OCC)c1Cc1ccc(-c2ccccc2S(=O)(=O)NC(=O)c2ccccc2Cl)cc1`, the melting point is reported as over 60 °C.
`CC(C(=O)O)c1ccc(C(F)(F)F)cc1` (centres undefined) showed a melting point of 56 to 58 °C.
`CCOC(=O)CON1C(=O)C(=O)N(c2cc(Cl)ccc2C)C1=S` showed a melting point of 157 to 159 °C.
Work on `CC1CC(N)=NN1c1nc2c(s1)CCCC2` (centres undefined) yielded a melting point of 247 to 249 °C.
For `CCc1cc(N)ccc1N1C(=O)c2ccc(Cl)cc2C1=O`, the melting point was 118 to 120 °C.
With `CC(C)(C)c1ccc(/C=C/C(=O)Nc2ccc3c(c2)NCCC3)cc1` the melting point was 225 to 227 °C.
Molecule `CCOc1cc([N+](=O)[O-])c(N)cc1C(=O)OC` has a melting point of 156 to 157 °C.
`COc1ccc(C2(CCO)CCN(C(=O)c3cc(OC)c(OC)c(OC)c3)C2)cc1OC` (centres undefined) gave a melting point of 60 to 62 °C.
In the case of `CC1=C(C(=O)Nc2cccc(C(=O)OC(C)C)c2)SCCO1`, the melting point is reported as 92 to 94 °C.
`c1ccc2cc(N3CCC4(CCNCC4)CC3)ccc2c1` gave a melting point of 158 to 162 °C.
`C=CCc1ccccc1OCC(O)CNC1CCc2ccccc2C1` (centres undefined) gave a melting point of 70 to 72 °C.
Work on `COC(=O)C(C)(C)OCc1cc2cc(C(F)(F)F)ccc2n1S(=O)(=O)c1cc(C)cc(C)c1` yielded a melting point of 132 to 134 °C.
For `O=C1Cc2cc(F)ccc2N1c1ccc(F)cc1`, the melting point was 135 to 140 °C.
For `CCC(CC)Nc1cc(C(=O)OC)ccc1N1C(=O)CCC1(CO)CO`, the melting point was 183 to 185 °C.
For `CN(C)C1(Cc2ccccc2)CCC(O)(c2cc3ccccc3o2)CC1` (centres undefined), the melting point was 121 to 124 °C.
Work on `COC(=N)CCSCc1csc(N=C(N)N)n1` yielded a melting point of 126 °C.
`O=c1ccn(-c2cccc(C(F)(F)F)c2)nc1-c1cc(C(F)(F)F)nn1-c1ccccc1` gave a melting point of 190 to 191 °C.
`CCOc1nn(Cc2ccc(OCc3nc(-c4ccccc4)oc3C)nc2)cc1CC(=O)O` showed a melting point of 126 to 127 °C.
